# Measured values as given in patent publication US20260053773A1, “PHARMACEUTICAL COMPOSITION AND USE THEREOF” (AUHUI TONGOO PHARMACEUTICAL TECHNOLOGY CO., LTD., priority 2022, published 2026).
# Values joined by “and” are separate entries in the source; they are usually repeats but may differ in a detail not shown here. Equal values may be shown once. Read-outs that look alike come from different tables or passages of the source.
# Columns and labels:
# [1] = Inhibition of COM crystal growth in three growth directions, inhibitors alone and in combination pairs; conditions: for concentration of the single inhibitor achieving 10% inhibition of crystal growth / concentration of the single inhibitor achieving 30% inhibition of crystal growth / concentration of the single inhibitor achieving 70% inhibition of crystal growth / IC50: inhibitor alone; for IC50: read-out: concentration of the single inhibitor achieving 50% inhibition of crystal growth
# Method: Different concentrations of citric acid (CA) and ellagic acid (EA) were added to 25 ml of deionized water, the supersaturation of the solution was controlled at S=2.4, and the growth process of the crystal was monitored.
# The hollow symbols in the figure represent the concentration required for a single inhibitor to achieve a certain effect, and the same solid symbols represent the concentration required for a combination of the inhibitors to achieve the same effect.
# Different concentrations of citric acid (CA) and gallic acid (GaA) were added to 25 ml of deionized water, and the growth process of the crystal was monitored.
# Different concentrations of citric acid (CA) and pyrogallol (PGA) were added to 25 ml of deionized water, and the growth process of the crystal was monitored.
# Different concentrations of citric acid (CA) and protocatechuic acid (PrA) were added to 25 ml of deionized water, and the growth process of the crystal was monitored.
# Comparative Example 1 differed from Example 1 merely in that ellagic acid was replaced with albumin, and the other preparation methods were the same as those in Example 1.
# Comparative Example 2 differed from Example 1 merely in that ellagic acid was replaced with o-hydroxybenzoic acid, and the other preparation methods were the same as those in Example 1.
# Different concentrations of hydroxycitric acid (HCA) and ellagic acid (EA) were added to 25 ml of deionized water, supersaturation of the solution was controlled at S=2.4, and the growth process of the crystal was monitored.
# Different concentrations of hydroxycitric acid (HCA) and gallic acid (GaA) were added to 25 ml of deionized water, and the growth process of the crystal was monitored.
# Different concentrations of potassium citrate (KCA) and ellagic acid (EA) were added to 25 ml of deionized water, the supersaturation of the solution was controlled at S=2.4, and the growth process of the crystal was monitored.
# Different concentrations of potassium citrate (KCA) and gallic acid (GaA) were added to 25 ml of deionized water, and the growth process of the crystal was monitored.
# [2] = test system: human proximal tubule cells (HK-2); assay: Cell death/survival of HK-2 cells exposed to COM crystals; format: cell-based; conditions: for synergistic enhancement order in improving cell activity: polyphenol (20 μM GaA, 20 μM EA, 40 μM PGA, 200 μM PrA) combined with citric acid 200 μM
# Method: Studies have shown that reducing calcium oxalate crystallization, crystal-cell interactions, and cellular damage can prevent stone formation to some extent. On this basis, the present example further verified the combined effect of the pharmaceutical composition of citric acid (200 μM) and polyphenol molecules (20 μM GaA, 20 μM EA, 40 μM PGA, 200 µM PrA) in reducing cellular damage and crystal adhesion.
# In order to explore the combined effects of the pharmaceutical composition on reducing crystal toxicity to cells, an in vitro model of direct exposure to COM crystals was selected in the present example to detect short-term cellular damage. In a culture medium environment with or without inhibitors, mature human proximal tubule cells (HK-2) were exposed to COM crystal suspension medium for the indicated times. […] However, in the presence of CA, the amount of cell death was reduced by 50% (FIG. 6).
# [3] = test system: human proximal tubule cells (HK-2); assay: Lactate dehydrogenase (LDH) release from HK-2 cells exposed to COM crystals; format: cell-based; conditions: 200 μM CA, 20 μM GaA
# Description: (§1) Studies have shown that reducing calcium oxalate crystallization, crystal-cell interactions, and cellular damage can prevent stone formation to some extent.
# Lactate dehydrogenase (LDH) is a cytoplasmic enzyme released into the extracellular space when the cell membrane ruptures, so the amount of LDH released can be used as a sign of cell membrane integrity.
# HK-2 cells = assay: Adhesion of COM crystals to HK-2 cells in vitro; format: cell-based; conditions: Homo sapiens, 200 μM CA alone, compared with the blank group without inhibitor, read-out: inhibitory effect on COM crystal adhesion
# Description: as §1
# [4] = related studies; cited from earlier work
Structure (SMILES),concentration of the single inhibitor achieving 10% inhibition of crystal growth ([1]; [001] direction),concentration of the single inhibitor achieving 30% inhibition of crystal growth ([1]; [001] direction),concentration of the single inhibitor achieving 70% inhibition of crystal growth ([1]; [001] direction),IC50 ([1]; [001] direction),concentration of the single inhibitor achieving 10% inhibition of crystal growth ([1]; [021] direction),concentration of the single inhibitor achieving 30% inhibition of crystal growth ([1]; [021] direction),concentration of the single inhibitor achieving 70% inhibition of crystal growth ([1]; [021] direction),IC50 ([1]; [021] direction),concentration of the single inhibitor achieving 10% inhibition of crystal growth ([1]; [121] direction),concentration of the single inhibitor achieving 30% inhibition of crystal growth ([1]; [121] direction),concentration of the single inhibitor achieving 70% inhibition of crystal growth ([1]; [121] direction),IC50 ([1]; [121] direction),"reduction of the amount of cell death ([2]; HK-2 cells exposed to COM crystals 24 hours, CA 200 μM) [%]",LDH release compared with the control group [3] [%],inhibition at 200 µM (HK-2 cells) [%],inhibitory effect on calcium oxalate crystallization [4] [%],synergistic enhancement order in improving cell activity [2],effect compared with citric acid ([1]; inhibition of COM crystal growth)
"O=C(O)CC(O)(CC(=O)O)C(=O)O [CA, citric acid]",0.0108 mM,0.0369 mM,0.1254 mM,71 µM,0.0121 mM,0.0409 mM,0.1380 mM,79.5 µM,0.0135 mM,0.0458 mM,0.1550 mM,89 µM,50,195.17,30,60,–,–
"O=c1oc2c(O)c(O)cc3c(=O)oc4c(O)c(O)cc1c4c23 [EA, ellagic acid]",8.4e-06 mM and 1.04e-05 mM and 1.05e-05 mM,3.86e-05 mM and 3.09e-05 mM and 3.85e-05 mM,0.0001322 mM and 0.0001041 mM and 0.0001312 mM,0.0761 µM and 0.0609 µM and 0.0763 µM,1.17e-05 mM and 9.4e-06 mM and 1.16e-05 mM,3.98e-05 mM and 3.2e-05 mM and 3.99e-05 mM,0.0001369 mM and 0.0001095 mM and 0.0001358 mM,0.0772 µM and 0.056 µM and 0.0771 µM,1.64e-05 mM and 1.31e-05 mM and 1.65e-05 mM,5.62e-05 mM and 4.49e-05 mM and 5.61e-05 mM,0.0001884 mM and 0.00015 mM and 0.0001879 mM,0.11 µM and 0.0888 µM,–,–,–,–,GaA>PcA>PGA>EA,–
"O=C(O)c1cc(O)c(O)c(O)c1 [GaA, gallic acid]",0.0003716 mM and 0.0004677 mM and 0.0004678 mM,0.0015906 mM and 0.0012801 mM and 0.00159 mM,0.0053799 mM and 0.0043049 mM and 0.0053797 mM,3.1 µM and 2.4 µM,0.0003743 mM and 0.0002994 mM and 0.0003744 mM,0.0012912 mM and 0.0010221 mM and 0.001291 mM,0.0043601 mM and 0.003488 mM and 0.00436 mM,2.51 µM and 1.8 µM,0.0004959 mM and 0.0003967 mM,0.0016841 mM and 0.0013473 mM and 0.0016842 mM,0.0056887 mM and 0.004551 mM and 0.0056881 mM,3.27 µM and 2.62 µM,–,–,–,–,GaA>PcA>PGA>EA,–
"O=C(O)CC(O)(C(=O)O)C(O)C(=O)O (stereo not drawn) [HCA, hydroxycitric acid]",0.0088 mM,0.0281 mM,0.1003 mM,56.1 µM,0.0096 mM,0.0320 mM,0.1104 mM,61 µM,0.0110 mM,0.0367 mM,0.1240 mM,72 µM,–,–,–,–,–,–
"O=C([O-])CC(O)(CC(=O)[O-])C(=O)[O-].[K+].[K+].[K+] [KCA, potassium citrate]",0.0106 mM,0.0369 mM,0.1253 mM,70.9 µM,0.0123 mM,0.0401 mM,0.1369 mM,79.4 µM,0.0135 mM,0.0451 mM,0.1547 mM,88.1 µM,–,–,–,–,–,almost the same
"Oc1cccc(O)c1O [PGA, pyrogallol]",0.0021 mM,0.0073 mM,0.0245 mM,14.2 µM,0.0018 mM,0.0062 mM,0.0210 mM,12.1 µM,0.0027 mM,0.0091 mM,0.0309 mM,17.7 µM,–,–,–,–,GaA>PcA>PGA>EA,–
"O=C(O)c1ccc(O)c(O)c1 [PrA, protocatechuic acid]",0.0255 mM,0.0982 mM,–,264 µM,0.0187 mM,0.0702 mM,–,186 µM,0.0307 mM,0.1174 mM,–,316 µM,–,–,–,–,GaA>PcA>PGA>EA,–
